Measurements reported in ChEMBL document CHEMBL5528022, “Discovery of a brain-permeable bromodomain and extra terminal domain (BET) inhibitor with selectivity for BD1 for the treatment of multiple sclerosis” (Eur J Med Chem, 2024).
≈ marks a conversion by molar mass, not a printed value. Calls of active or inactive are those of the source. The rule behind the calls is not given here.

Assays:
[1] = target: T1, Bromodomain-containing protein 4 (Homo sapiens, UniProt O60885); experiment: Binding affinity to BRD4 BD1 (unknown origin) expressed in Escherichia coli BL21 (DE3) at 1:1 protein:compound ratio by MST assay
[2] = target: T1, Bromodomain-containing protein 4; experiment: Binding affinity to BRD4 BD2 (unknown origin) expressed in Escherichia coli BL21 (DE3) at 1:1 protein:compound ratio by MST assay
[3] = Selectivity ratio of Kd for binding affinity to BRD4 BD2 (unknown origin) by MST assay to Kd for binding affinity to BRD4 BD1 (unknown origin) by MST assay
Microglia = experiment: Antiinflammatory activity against LPS induced neonatal rat cerebral cortex microglia by immunofluorescence assay; format: functional, cell-based
Mus musculus [4] = experiment: (§1) Anti-inflammatory activity in complete Freund's adjuvant/MOG (35 to 55 residues)/pertussis toxin-induced experimental autoimmune encephalomyelitis C57BL/6 mouse model assessed as reduction in clinical scores at 30 mg/kg, ip bid administered 6 days post immunization and measured every 3 days for 28 days post immunization; format: functional, organism-based; conditions: time 22.0 day
Mus musculus [5] = experiment: as §1, with “change” for “reduction”, “cumulative” for “clinical”; format: functional, organism-based; conditions: time 22.0 day
Mus musculus [6] = experiment: as §1, with “TNF-alpha level” for “clinical scores”; format: functional, organism-based; conditions: time 22.0 day
Mus musculus [7] = experiment: as §1, with “IL-6 level” for “clinical scores”; format: functional, organism-based; conditions: time 22.0 day
Mus musculus [8] = experiment: (§2) Anti-inflammatory activity in complete Freund's adjuvant/MOG (35 to 55 residues)/pertussis toxin-induced experimental autoimmune encephalomyelitis C57BL/6 mouse model assessed as appearance of normal myelin structure at 30 mg/kg, ip bid administered 6 days post immunization and measured every 3 days for 28 days post immunization by Luxol fast blue staining based bright field fluorescence microscopic analysis; format: functional, organism-based; conditions: time 22.0 day
Mus musculus [9] = experiment: as §2, with “as” for “as appearance of normal”, “density” for “structure”, “60” for “30”; format: functional, organism-based; conditions: time 22.0 day
[10] = target: T1, Bromodomain-containing protein 4; experiment: Binding affinity to BRD4 BD1 (unknown origin) expressed in Escherichia coli BL21 (DE3) by ITC assay
[11] = target: T1, Bromodomain-containing protein 4; experiment: Binding affinity to BRD4 BD2 (unknown origin) expressed in Escherichia coli BL21 (DE3) by ITC assay
[12] = Selectivity ratio of Kd for binding affinity to BRD4 BD2 (unknown origin) by ITC assay to Kd for binding affinity to BRD4 BD1 (unknown origin) by ITC assay
[13] = target: T1, Bromodomain-containing protein 4; experiment: Binding affinity to BRD4 BD1 (unknown origin) assessed as change in enthalpy by ITC method
[14] = target: T1, Bromodomain-containing protein 4; experiment: Binding affinity to BRD4 BD1 (unknown origin) assessed as change in entropy by ITC method
[15] = target: T1, Bromodomain-containing protein 4; experiment: Binding affinity to BRD4 BD1 (unknown origin) assessed as change in gibbs free energy by ITC method
[16] = target: T1, Bromodomain-containing protein 4; experiment: Inhibition of BRD4 BD1 (unknown origin) incubated for 15 mins by HTRF method
[17] = target: T1, Bromodomain-containing protein 4; experiment: Inhibition of BRD4 BD2 (unknown origin) incubated for 15 mins by HTRF method
[18] = target: T2, Bromodomain-containing protein 3 (Homo sapiens, UniProt Q15059); experiment: Inhibition of BRD3 BD1 (unknown origin) incubated for 15 mins by HTRF method
T2 sequence (Q15059 whole entry): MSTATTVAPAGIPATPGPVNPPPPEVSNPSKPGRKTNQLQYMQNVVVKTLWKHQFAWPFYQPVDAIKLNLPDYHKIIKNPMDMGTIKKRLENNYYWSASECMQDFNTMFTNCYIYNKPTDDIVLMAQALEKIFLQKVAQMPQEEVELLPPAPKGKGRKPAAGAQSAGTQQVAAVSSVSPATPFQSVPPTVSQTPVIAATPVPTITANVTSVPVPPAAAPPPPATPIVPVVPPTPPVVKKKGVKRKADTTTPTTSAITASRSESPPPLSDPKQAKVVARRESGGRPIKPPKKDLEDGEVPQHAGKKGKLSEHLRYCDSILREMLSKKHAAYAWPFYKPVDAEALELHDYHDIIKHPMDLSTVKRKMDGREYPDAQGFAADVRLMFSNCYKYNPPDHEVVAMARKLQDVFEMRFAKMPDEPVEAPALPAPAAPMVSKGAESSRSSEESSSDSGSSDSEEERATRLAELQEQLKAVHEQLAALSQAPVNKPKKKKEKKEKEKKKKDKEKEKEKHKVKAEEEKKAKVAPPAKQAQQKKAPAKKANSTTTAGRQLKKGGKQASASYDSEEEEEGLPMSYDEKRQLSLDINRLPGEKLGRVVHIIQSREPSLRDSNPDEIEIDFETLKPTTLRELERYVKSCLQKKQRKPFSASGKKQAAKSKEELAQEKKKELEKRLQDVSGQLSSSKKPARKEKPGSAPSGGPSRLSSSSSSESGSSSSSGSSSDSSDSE

[19] = target: T2, Bromodomain-containing protein 3; experiment: Inhibition of BRD3 BD2 (unknown origin) incubated for 15 mins by HTRF method
[20] = target: T3, Bromodomain-containing protein 2 (Homo sapiens, UniProt P25440); experiment: Inhibition of BRD2 BD1 (unknown origin) incubated for 15 mins by HTRF method
T3 sequence (P25440 whole entry): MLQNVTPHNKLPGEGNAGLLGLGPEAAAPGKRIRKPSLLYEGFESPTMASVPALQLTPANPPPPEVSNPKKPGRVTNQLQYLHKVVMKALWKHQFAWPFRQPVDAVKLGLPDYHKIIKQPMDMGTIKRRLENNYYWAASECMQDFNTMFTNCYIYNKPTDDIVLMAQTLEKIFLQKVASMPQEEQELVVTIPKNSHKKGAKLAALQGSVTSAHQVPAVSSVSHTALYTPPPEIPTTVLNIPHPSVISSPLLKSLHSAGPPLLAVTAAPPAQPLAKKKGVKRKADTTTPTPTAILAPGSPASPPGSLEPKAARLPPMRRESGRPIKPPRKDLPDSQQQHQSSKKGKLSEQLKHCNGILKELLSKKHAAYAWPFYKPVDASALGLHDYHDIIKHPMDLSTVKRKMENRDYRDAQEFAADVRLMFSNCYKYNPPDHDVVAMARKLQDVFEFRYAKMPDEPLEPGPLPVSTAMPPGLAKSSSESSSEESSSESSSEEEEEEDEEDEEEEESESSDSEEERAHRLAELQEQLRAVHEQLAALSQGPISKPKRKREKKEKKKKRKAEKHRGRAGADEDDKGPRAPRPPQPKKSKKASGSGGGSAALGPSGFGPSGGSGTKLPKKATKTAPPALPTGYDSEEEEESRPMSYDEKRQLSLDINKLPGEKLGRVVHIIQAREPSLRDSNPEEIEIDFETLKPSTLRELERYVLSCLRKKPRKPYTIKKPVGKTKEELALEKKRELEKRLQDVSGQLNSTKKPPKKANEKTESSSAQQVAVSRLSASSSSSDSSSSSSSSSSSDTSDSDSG

[21] = target: T3, Bromodomain-containing protein 2; experiment: Inhibition of BRD2 BD2 (unknown origin) incubated for 15 mins by HTRF method
[22] = target: T4, Bromodomain testis-specific protein (Homo sapiens, UniProt Q58F21); experiment: Inhibition of BRDT BD1 (unknown origin) incubated for 15 mins by HTRF method
[23] = target: T4, Bromodomain testis-specific protein; experiment: Inhibition of BRDT BD2 (unknown origin) incubated for 15 mins by HTRF method
[24] = Selectivity ratio of IC50 for inhibition of BRD4 BD2 (unknown origin) to IC50 for inhibition of BRD4 BD1 (unknown origin)
[25] = Selectivity ratio of IC50 for inhibition of BRD3 BD2 (unknown origin) to IC50 for inhibition of BRD3 BD1 (unknown origin)
[26] = Selectivity ratio of IC50 for inhibition of BRD2 BD2 (unknown origin) to IC50 for inhibition of BRD2 BD1 (unknown origin)
[27] = Selectivity ratio of IC50 for inhibition of BRDT BD2 (unknown origin) to IC50 for inhibition of BRDT BD1 (unknown origin)
[28] = Solubility in water by HPLC analysis; format: physicochemical
[29] = Stability in rat liver microsomes assessed as half life; format: ADME, Microsome
[30] = Stability in rat liver microsomes assessed as intrinsic clearance; format: ADME, Microsome; conditions: read-out: CLH
[31] = Lipophilicity, logD of compound at pH 7.4 by LC-MS/MS based shake bottle method; format: physicochemical; conditions: buffer
[32] = Unbound drug level in ICR mouse brain incubated for 5 hrs by equilibrium dialysis method; format: ADME, tissue-based
[33] = Free maximum concentration of drug in ICR mouse brain; format: ADME, tissue-based
[34] = Cmax in Sprague-Dawley rat at 5 mg/kg, iv measured upto 25 hrs by LC-MS/MS analysis; format: ADME, organism-based; conditions: in vivo
[35] = Half life in Sprague-Dawley rat at 5 mg/kg, iv measured upto 25 hrs by LC-MS/MS analysis; format: ADME, organism-based; conditions: in vivo
[36] = Mean residence time in Sprague-Dawley rat at 5 mg/kg, iv measured upto 25 hrs by LC-MS/MS analysis; format: ADME, organism-based; conditions: in vivo
[37] = Cmax in Sprague-Dawley rat at 25 mg/kg, ip measured upto 25 hrs by LC-MS/MS analysis; format: ADME, organism-based; conditions: in vivo
[38] = Tmax in Sprague-Dawley rat at 25 mg/kg, ip measured upto 25 hrs by LC-MS/MS analysis; format: ADME, organism-based; conditions: in vivo
[39] = Half life in Sprague-Dawley rat at 25 mg/kg, ip measured upto 25 hrs by LC-MS/MS analysis; format: ADME, organism-based; conditions: in vivo
[40] = Mean residence time in Sprague-Dawley rat at 25 mg/kg, ip measured upto 25 hrs by LC-MS/MS analysis; format: ADME, organism-based; conditions: in vivo
[41] = Bioavailability in Sprague-Dawley rat at 25 mg/kg, ip measured upto 25 hrs by LC-MS/MS analysis; format: ADME, organism-based; conditions: in vivo
[42] = Cmax in Sprague-Dawley rat at 25 mg/kg, po measured upto 25 hrs by LC-MS/MS analysis; format: ADME, organism-based; conditions: in vivo
[43] = Tmax in Sprague-Dawley rat at 25 mg/kg, po measured upto 25 hrs by LC-MS/MS analysis; format: ADME, organism-based; conditions: in vivo
[44] = Half life in Sprague-Dawley rat at 25 mg/kg, po measured upto 25 hrs by LC-MS/MS analysis; format: ADME, organism-based; conditions: in vivo
[45] = Mean residence time in Sprague-Dawley rat at 25 mg/kg, po measured upto 25 hrs by LC-MS/MS analysis; format: ADME, organism-based; conditions: in vivo
[46] = Oral bioavailability in Sprague-Dawley rat at 25 mg/kg measured upto 25 hrs by LC-MS/MS analysis; format: ADME, organism-based; conditions: in vivo
[47] = Cmax in C57BL/6 mouse blood at 5 mg/kg, iv measured upto 25 hrs by LC-MS/MS analysis; format: ADME, organism-based
[48] = Cmax in C57BL/6 mouse brain at 5 mg/kg, iv measured upto 25 hrs by LC-MS/MS analysis; format: ADME, organism-based
[49] = Cmax in C57BL/6 mouse spinal cord at 5 mg/kg, iv measured upto 25 hrs by LC-MS/MS analysis; format: ADME, organism-based
[50] = Tmax in C57BL/6 mouse brain at 5 mg/kg, iv measured upto 25 hrs by LC-MS/MS analysis; format: ADME, organism-based
[51] = Tmax in C57BL/6 mouse spinal cord at 5 mg/kg, iv measured upto 25 hrs by LC-MS/MS analysis; format: ADME, organism-based
Mus musculus [52] = experiment: as §1, with “30 to 60” for “30”, “qd” for “bid”; format: functional, organism-based; conditions: dose 30-60 mg/kg, time 22.0 day
Mus musculus [53] = experiment: as §1, with “change” for “reduction”, “cumulative” for “clinical”, “30 to 60” for “30”, “qd” for “bid”; format: functional, organism-based; conditions: dose 30-60 mg/kg, time 22.0 day
[54] = Toxicity in C57BL/6 mouse model of experimental autoimmune encephalomyelitis assessed as body weight loss at 30 to 60 mg/kg, ip administered 6 days post immunization and measured every 3 days for 28 days post immunization; format: organism-based; conditions: in vivo, 528 h, dose 30-60 mg/kg, time 22 day
[55] = Toxicity in C57BL/6 mouse model of experimental autoimmune encephalomyelitis assessed as animal death at 30 to 60 mg/kg, ip administered 6 days post immunization and measured every 3 days for 28 days post immunization; format: organism-based; conditions: in vivo, 144 h, dose 30-60 mg/kg, time 6 day
Mus musculus [56] = experiment: as §1, with “TNF-alpha level” for “clinical scores”, “30 to 60” for “30”, “qd” for “bid”; format: functional, organism-based; conditions: dose 30-60 mg/kg, time 22.0 day
Mus musculus [57] = experiment: as §1, with “IL-6 level” for “clinical scores”, “30 to 60” for “30”, “qd” for “bid”; format: functional, organism-based; conditions: dose 30-60 mg/kg, time 22.0 day
Mus musculus [58] = experiment: as §2, with “30 to 60” for “30”, “qd” for “bid”; format: functional, organism-based; conditions: dose 30-60 mg/kg, time 22.0 day
Mus musculus [59] = experiment: as §2, with “as” for “as appearance of normal”, “density” for “structure”, “60” for “30”, “qd” for “bid”; format: functional, organism-based; conditions: time 22.0 day
[60] = target: T1, Bromodomain-containing protein 4; experiment: Binding affinity to BRD4 BD2 (unknown origin) assessed as change in enthalpy by ITC method
[61] = target: T1, Bromodomain-containing protein 4; experiment: Binding affinity to BRD4 BD2 (unknown origin) assessed as change in entropy by ITC method
[62] = target: T1, Bromodomain-containing protein 4; experiment: Binding affinity to BRD4 BD2 (unknown origin) assessed as change in gibbs free energy by ITC method

CCn1nc(C)c(-c2cncc(-c3ccnc4nc[nH]c34)c2)c1C
Kd [1]: 480 nM
Kd [2]: 16000 nM
Selectivity ratio [3]: 34

Cc1nn(C)cc1-c1cncc(-c2ccnc3nc[nH]c23)c1
Kd [1]: 660 nM
Kd [2]: 28000 nM
Selectivity ratio [3]: 42

COC(=O)/C=C/C(=O)OC
Activity (Microglia): Active
Activity (Mus musculus [4]): Active
Activity (Mus musculus [5]): Active
Activity (Mus musculus [6]): Active
Activity (Mus musculus [7]): Active
Activity (Mus musculus [8]): Active
Activity (Mus musculus [9]): Active

Cc1nn(CC2CC2)c(C)c1-c1cncc(-c2ccnc3nc[nH]c23)c1
Kd [1]: 230 nM
Kd [2]: 14000 nM
Selectivity ratio [3]: 60
Kd [10]: 540 nM
Kd [11]: 21000 nM
Selectivity ratio [12]: 38
deltaH [13]: -15.6 kcal/mol
TdeltaS [14]: 7.1 kcal/mol
deltaG [15]: -8.55 kcal/mol
IC50 [16]: 176 nM
IC50 [17]: 4840 nM
IC50 [18]: 183 nM
IC50 [19]: 1940 nM
IC50 [20]: 498 nM
IC50 [21]: 2090 nM
IC50 [22]: 4750 nM
IC50 [23]: 3040 nM
Ratio IC50 [24]: 28
Ratio IC50 [25]: 11
Ratio IC50 [26]: 4
Ratio IC50 [27]: 0.6
Activity (Microglia): Active
solubility [28]: 760 µg/mL (≈ 2210 µM)
half-life [29]: 3.7 h
microsomal CLint [30]: 3.2 µL/min/mg
logD [31]: 2.31
fraction unbound at 5 h [32]: 0.979
fCmax [33]: 170 nM
Cmax [34]: 17.2 µM
half-life [35]: 3.56 h
MRT [36]: 4.46 h
Cmax [37]: 89.4 µM
Tmax [38]: 1 h
half-life [39]: 3.53 h
MRT [40]: 1.74 h
bioavailability [41]: 121%
Cmax [42]: 7.15 µM
Tmax [43]: 0.25 h
half-life [44]: 6.31 h
MRT [45]: 8.93 h
bioavailability [46]: 22%
Cmax [47]: 17.2 µM
Cmax [48]: 7.91 µM
Cmax [49]: 3 µM
Tmax [50]: 1 h
Tmax [51]: 1 h
Activity (Mus musculus [52]): Active
Activity (Mus musculus [53]): Active
Activity [54]: Non-Toxic
Activity [55]: Non-Toxic
Activity (Mus musculus [56]): Active
Activity (Mus musculus [57]): Active
Activity (Mus musculus [58]): Active
Activity (Mus musculus [59]): Active
deltaH [60]: -5.84 kcal/mol
TdeltaS [61]: -0.533 kcal/mol
deltaG [62]: -6.37 kcal/mol

Cc1c(-c2cncc(-c3ccnc4nc[nH]c34)c2)cnn1C
Kd [1]: 690 nM
Kd [2]: 31000 nM
Selectivity ratio [3]: 46

Cc1nn(CC2CCC2)c(C)c1-c1cncc(-c2ccnc3nc[nH]c23)c1
Kd [1]: 250 nM
Kd [2]: 13000 nM
Selectivity ratio [3]: 51
